Laboratory results reported in patent publication US9249128B2 (priority 2010, dated 2016).
Where two headings read alike, the source gives them in different places.

Columns and labels:
PC3 and DU145 cells [1] = assay: Invasion assay (Matrigel chambers); assay type: cell-based, human; conditions: 10 μM, 4 h in situ
Experimental: (§1) Inhibitors were dissolved in DMSO and diluted into media or buffer prior to cell or proteome treatment, respectively. For in vitro treatment, final DMSO concentration was 4%. For in situ treatments of cells for ABPP, lipid measurements, migration, cell-survival, and invasion assays, 2×10^6 cells were seeded in 6 cm dishes (˜100% confluency) 24 h prior to inhibitor pre-treatment (in DMSO at 0.1% final concentration) in serum-free media (3 mL) for the designated time before harvesting cells for ABPP or lipid measurements or before the initiation of migration, cell-survival, and invasion assays.
(§2) Cell migration, cell survival, and invasion studies were performed as previously described (Nomura et al., 2010). Briefly, migration assays were performed in Transwell chambers (Corning) with 8 μm pore-sized membranes coated with 10 μg/mL collagen at 37° C. for LNCaP (24 h), PC3 (4 h) and DU145 cells (24 h), respectively. Cell survival assays were performed using the Cell Proliferation Reagent WST-1 (Roche) Invasion assays were conducted using the BD Matrigel Invasion Chambers per the manufacturer's protocol. Inhibitors were preincubated for the stated duration before seeding cells into migration, cell-survival, or invasion chambers. Prior to seeding the cells in these chambers, cells were serum-starved for 4 h. Inhibitors were also present during the migration, cell-survival, and invasion assays.

PC3 and DU145 cells [2] = assay: Serum-free cell survival assay (WST-1); assay type: cell-based, human; conditions: 10 μM, 4 h in situ
Experimental: as §1, §2

[3] = test system: MAGE levels in PC3 and DU145 cells; assay: Lipid (MAGE) measurements in cancer cells; assay type: cell-based, human; conditions: 10 μM, 4 h in situ
Experimental: as §1
Lipid measurements were performed in cancer cells as previously described (Chiang et al., 2006). Briefly, frozen cell pellets from cells harvested after 4 h serum starvation were extracted in 2:1:1 chloroform:methanol:Tris buffer pH 8.0 by dounce homogenization with 10 nmol of internal standard C12 MAGE. The organic layer was removed, dried under N2, and resuspended in 120 μL of chloroform, and 30 μL was injected into an Agilent 1100-MSD LC-MS. MAGE levels were quantified by measuring the area under the peak and were normalized to the C12 MAGE internal standard.

AChE = molecular target: T1, AChE (Mus musculus, UniProt P21836); assay: AChE activity assay with acetylthiocholine in mouse brain proteome; assay type: biochemical; conditions: acetylthiocholine hydrolysis in mouse brain membrane proteome
T1 construct: 20 μg of cell lysate or mouse brain membrane proteome; from tissue; host or cells: mouse brain (membrane proteome)
T1 sequence (P21836 32-614): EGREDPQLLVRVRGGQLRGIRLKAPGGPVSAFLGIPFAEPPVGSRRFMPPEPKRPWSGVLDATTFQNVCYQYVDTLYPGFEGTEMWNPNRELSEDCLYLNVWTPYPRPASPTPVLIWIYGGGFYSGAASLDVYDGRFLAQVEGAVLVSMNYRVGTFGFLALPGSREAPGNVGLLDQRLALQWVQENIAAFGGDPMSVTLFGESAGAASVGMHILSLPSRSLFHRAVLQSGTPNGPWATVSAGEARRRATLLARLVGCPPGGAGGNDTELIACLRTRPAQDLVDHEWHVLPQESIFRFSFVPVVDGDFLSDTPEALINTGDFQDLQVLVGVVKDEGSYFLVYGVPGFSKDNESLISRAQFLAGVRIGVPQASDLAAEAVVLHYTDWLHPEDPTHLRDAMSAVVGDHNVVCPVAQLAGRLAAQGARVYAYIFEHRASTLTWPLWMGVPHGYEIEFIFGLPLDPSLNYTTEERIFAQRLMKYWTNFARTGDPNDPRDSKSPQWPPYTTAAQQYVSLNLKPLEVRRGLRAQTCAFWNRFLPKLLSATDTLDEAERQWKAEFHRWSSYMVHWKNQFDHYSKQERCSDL
Experimental: AChE activity was measured using a method similar to that described previously (Ellman et al., 1961). Briefly, 50 μL of 10 mM acetylthiocholine was added to 200 μL of PBS containing 2 mM DTNB and 20 μg of cell lysate or mouse brain membrane proteome. Absorbance was measured at 412 nm over 5 min, and the rate of product accumulation was calculated from the slope of the absorbance over time. For assays involving preincubation with inhibitors, the reactions were prepared without acetylthiocholine and JW480 was incubated at the indicated concentration for 30 min at 37° C. Acetylthiocholine was then added and the assay was carried out exactly as described above.

KIAA1363 = molecular target: T2, KIAA1363 (Mus musculus, UniProt Q8BLF1); assay: Gel-based competitive ABPP of KIAA1363 in mouse brain membrane proteome (FP-rhodamine); assay type: biochemical
T2 construct: ABPP analysis of KIAA1363 activity in mouse brain membrane proteome; from tissue; host or cells: mouse brain (membrane fraction)
T2 sequence (Q8BLF1 1-408): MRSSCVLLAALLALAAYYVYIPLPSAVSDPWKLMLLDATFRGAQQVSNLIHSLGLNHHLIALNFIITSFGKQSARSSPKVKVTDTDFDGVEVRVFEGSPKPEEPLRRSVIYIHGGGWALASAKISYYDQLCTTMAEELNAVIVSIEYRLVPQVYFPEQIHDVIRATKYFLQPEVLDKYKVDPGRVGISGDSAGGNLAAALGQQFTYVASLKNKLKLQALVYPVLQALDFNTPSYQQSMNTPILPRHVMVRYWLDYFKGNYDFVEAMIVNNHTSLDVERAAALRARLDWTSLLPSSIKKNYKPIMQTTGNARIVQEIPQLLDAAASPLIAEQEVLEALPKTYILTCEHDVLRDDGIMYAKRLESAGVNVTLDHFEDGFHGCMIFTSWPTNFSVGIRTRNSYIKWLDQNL
Experimental: In various embodiments, the invention provides a method of inhibiting a serine hydrolase, comprising contacting the hydrolase with a compound of formula (I), e.g., a compound selected from set of compounds shown in Table 1, below. […] IC50 values were derived from ABPP analysis of KIAA1363 activity in mouse brain membrane proteome and are averages of three replicates. Inhibitors were added to the proteome for 30 min before addition of FP-rhodamine (1 μM, 30 min).
Tissues were Dounce-homogenized in PBS, pH 7.4, followed by a low-speed spin (1,400 g, 5 min) to remove debris. The supernatant was then subjected to centrifugation (100,000×g, 45 min) to provide the cytosolic fraction in the supernatant and the unsoluble fraction as a pellet. The pellet was washed and resuspended in PBS buffer by sonication. Total protein concentration in each fraction was determined using a protein assay kit (Bio-Rad). Samples were stored at −80° C. until use.
(§3) For ABPP experiments, cell lysate and tissue proteomes were treated with 1 μM FP-rhodamine for 30 min at room temperature (50 μL total reaction volume) as described previously (Nomura et al., 2010). Reactions were quenched with one volume of standard 4×SDS/PAGE loading buffer (reducing), separated by SDS/PAGE (10% acrylamide), and visualized in-gel with a Hitachi FMBio IIe flatbed fluorescence scanner (MiraiBio). Inhibitors were preincubated prior (30 min or 4 h at 37° C. in vitro or in situ, respectively) to the addition of FP-rhodamine.

HSL = molecular target: T3, HSL (Mus musculus, UniProt P54310); assay: Competitive ABPP of HSL in rosiglitazone-differentiated 3T3-10T1/2 adipocyte proteome; assay type: biochemical
T3 construct: ABPP analysis of HSL from a rosiglitazone-differentiated 3T3-10T1/2 adipocyte proteome; endogenous in cells; host or cells: rosiglitazone-differentiated 3T3-10T1/2 adipocytes
T3 sequence (P54310 1-759): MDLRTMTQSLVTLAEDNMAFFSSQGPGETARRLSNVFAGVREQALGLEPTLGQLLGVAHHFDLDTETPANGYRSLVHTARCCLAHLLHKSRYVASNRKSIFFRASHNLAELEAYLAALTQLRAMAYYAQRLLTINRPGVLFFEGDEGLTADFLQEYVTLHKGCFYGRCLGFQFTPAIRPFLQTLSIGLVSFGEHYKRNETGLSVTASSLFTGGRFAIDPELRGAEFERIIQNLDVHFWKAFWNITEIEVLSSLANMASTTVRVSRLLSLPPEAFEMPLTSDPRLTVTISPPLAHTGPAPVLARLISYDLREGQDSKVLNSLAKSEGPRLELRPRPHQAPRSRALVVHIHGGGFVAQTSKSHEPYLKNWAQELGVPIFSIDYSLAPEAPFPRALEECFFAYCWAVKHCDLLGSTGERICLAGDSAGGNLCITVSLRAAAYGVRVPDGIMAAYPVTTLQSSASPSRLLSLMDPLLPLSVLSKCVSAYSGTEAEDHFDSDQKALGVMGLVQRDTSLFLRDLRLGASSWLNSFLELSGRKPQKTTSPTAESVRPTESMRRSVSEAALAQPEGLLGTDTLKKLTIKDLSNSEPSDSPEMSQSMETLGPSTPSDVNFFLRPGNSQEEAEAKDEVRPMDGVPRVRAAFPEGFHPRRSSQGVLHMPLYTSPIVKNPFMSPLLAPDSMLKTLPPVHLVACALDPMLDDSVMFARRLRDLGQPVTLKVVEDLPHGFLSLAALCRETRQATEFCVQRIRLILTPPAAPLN
Experimental: as §3

[4] = mouse brain membrane proteome, inhibitor 30 min before FP-rhodamine (1 μM, 30 min), averages of three replicates, read-out: IC50 (KIAA1363)
[5] = screened against KIAA1363, Table 1, read-out: IC50 values of around 10 nanomolar (most potent)

Row | SMILES | PC3 and DU145 invasion (PC3 and DU145 cells [1]) | PC3 and DU145 serum-free cell survival (PC3 and DU145 cells [2]) | MAGE levels [3] | Cross-reactivity with AChE (AChE) | IC50 (KIAA1363; [4]) | IC50 (KIAA1363; screened against KIAA1363, Table 1, read-out: IC50 values of less than 1 micromolar) | Cross-reactivity with HSL (HSL) | IC50 (KIAA1363; [5])
1 | CCCCOC[C@H]1CCCC[C@H]1COCCNC(=O)Oc1ccccc1F [AS115, reference compound] | impair | impair | lower MAGE levels | – | – | – | – | –
2 | Cc1ccc2ccccc2c1OC(=O)NCCc1ccc2ccccc2c1 [JW440, 2-methylnaphthalen-1-yl (2-(naphthalen-2-yl)ethyl)carbamate] | – | – | – | little or no activity | 437 nM | < 1000 nM | little or no activity | –
3 | CC(C)c1ccccc1OC(=O)NCCc1ccc(F)cc1 [JW464, 2-isopropylphenyl 4-fluorophenethylcarbamate] | – | – | – | cross-reactivity | 11.3 nM | – | – | ~10 nM
4 | CC(C)c1ccccc1OC(=O)NCCc1ccc(C(F)(F)F)cc1 [JW482, 2-isopropylphenyl 4-(trifluoromethyl)phenethylcarbamate] | – | – | – | – | 9.4 nM | – | – | ~10 nM
